Patent US7468270B2, “Probiotic strains, a process for the selection of them, compositions thereof, and their use” (Puleva Biotech, S.A., priority 2003, dated 2008)

Test system: Salmonella typhmurium and Escherichia coli
Test: Production of antimicrobial metabolites, agar well diffusion assay
Assay type: cell-based
Conditions: dilution of each metabolic acid at pH 4.5; data not shown
Experimental: The probiotic strains of this invention were assessed for their capability to produce antimicrobial metabolites using an agar well diffusion assay. MRS agar plates containing 10^6 cfu/ml of different pathogenic bacteria strain (Salmonella typhmurium and Escherichia coli) were prepared. Wells, with a diameter of 5 mm, where then cut in the agar using a sterile cork-borer. Then, 50 μl of a 2 fold concentrate supernatant of each probiotic strain culture were added to the wells and allowed to diffuse into the agar during a 2 hours preincubation period at 4° C., followed by aerobic incubation of the plates at 37° C. for 16-18 hours. The antimicrobial activity of each supernatant was considered high if the diameter of the inhibition hallo for both pathogenic bacteria strains was >12, moderate between 8 and 12, and slight <8 (FIG. 11)
Moreover, it was also tested if the antimicrobial activity of the supernatants was due to a antimicrobial substance or to the production of metabolic acids. […] It was also tested the antimicrobial capabilities of supernatants obtained from bacterial cultures using glucose or lactose as a carbohydrate source.

SMILES	Inhibition of growth of Salmonella or E. coli by a dilution of metabolic acid
CCCC(=O)O [butyric, butyric acid]	None of these situations inhibited the growth
CC(=O)O [acetic]	None of these situations inhibited the growth
